Patent US20240408183A1, “KYNURENINE AMINOTRANSFERASE AND PRODUCTS THEREOF FOR THE TREATMENT OF INFLAMMATORY BOWEL DISEASES” (Institut National De Recherche Pour L'Agriculture, …, priority 2021, published 2024)

System: mice submitted to DSS-induced colitis
Assay: DSS-induced colitis model in mice
Type: in vivo, mouse (C57BL/6JRj)
Conditions: for protection against DSS-induced colitis (body weight loss, DAI, colon length, histological score): FIG. 2, oral administration, n=16-20 mice per group; for protection from colitis: intraperitoneal injection, FIG. 3, n=10 mice per group; for colonic expression of pro-inflammatory cytokines such as IL-1 or IL-17: oral treatment, measured by Nanostring technology, data not shown; for colon length / histological score: day twelve
Description: C57BL/6JRj from Janvier lab, 7 weeks old, were housed in our specific pathogen free animal facility at IERP (INRA, Jouy en Josas, France). Five to ten female mice per group were used in all experiment, were maintained in a temperature controlled (23° C.) facility with a strict 12 h light/dark cycles and were given free access to food and water. After one acclimation week, we changed water with DSS 2% (MP Biomedical) during 7 days (day 0 to day 7), and a
recovery period was practiced until day 12 (during 5 days). Body weight loss and DAI (disease activity index) were performed daily. After 12 days the samples were harvested.
Colon distal part (cut in three parts) was harvested at day 12 after DSS model and put directly in PFA (Rothi®—Histofix 4%) during 48 h and transferred in ethanol 70% until the standard pre-fixation automat and paraffin embedded. HES coloration was practiced on 5Im cut.
Data were analyzed using Prism version 7 (Graphpad Software, San Diego, USA). The non-parametric Mann Withney test or the parametric one-way ANOVA tests with multiple Bonferroni's comparison tests were performed. Values are expressed as mean±SEM. Statistical significance was defined at a p-value ****<0.0001, ***<0.001, **<0.01, *<0.05.

[1] = oral, each day, 8 mg of KYNA / 6 mg of XANA per mouse
[2] = oral, each day, 8 mg of KYNA / 6 mg of XANA per mouse, measured daily, DSS 2%

Structure (SMILES) | protection against DSS-induced colitis (body weight loss, DAI, colon length, histological score) | protection from colitis | colonic expression of pro-inflammatory cytokines such as IL-1 or IL-17 | colon length [1] | histological score [1] | weight loss [2] | activity index of colitis (DAI) [2]
O=C(O)c1cc(O)c2cccc(O)c2n1 [XANA, xanthurenic acid] | protect against DSS-induced colitis | induces protection similar to that observed when these metabolites are given orally | reduced | longer | lower | anti-inflammatory effect | 
O=C(O)c1cc(=O)c2ccccc2[nH]1 [KYNA, kynurenic acid, reference compound] | protect against DSS-induced colitis | induces protection similar to that observed when these metabolites are given orally | reduced | longer | lower | anti-inflammatory effect | anti-inflammatory effect
